The values that follow come from US11279736B2, “Conformationally-preorganized, MiniPEG-containing gamma-peptide nucleic acids” (CARNEGIE MELLON UNIVERSITY, priority 2011, dated 2022).

What is called Kd is a measure of binding affinity in units of concentration.

Like-named read-outs stand apart in the source and are kept apart here. Marks after values point to notes of the source that are not given here. [RMPγPNA-N] = PNA unit with R-MP-gamma backbone modification (N: the base)

Series [1] deals with DNA: 3′-[…]-5, X = A, C, G, T (SEQ ID NO: 11). Particulars: PNA-DNA, cited from earlier work.
Another series relates to complementary RNA strand. Description: UV-melting / van't Hoff analysis of PNA-RNA hybrid duplexes. It counts as binding. As to the method: (§1) FIGS. 2A-2B illustrate UV-melting profiles of PNA-DNA (FIG. 2A) and PNA-RNA (FIG. 2B) hybrid duplexes at a strand concentration of […] each in 10 mM sodium phosphate buffer at pH 7.4. While both the heating and cooling runs were performed because they both have nearly identical profiles UV-melting for only the heating runs are shown.
A similar pattern is observed for a R-MP-γPNA-RNA duplex, but the observed increase in thermal stability is lower for a R-MP-γPNA-RNA duplex as compared to a R-MP-γPNA-DNA duplex (FIG. 3B). The enhancement in thermal stability of a R-MP-γPNA-RNA duplex is only 3° C. for the first R-MP-γPNA-monomer that is incorporated into the PNA oligomer and this gain in thermal stability reduces to about 1.2° C. per R-MP-γPNA monomer for an oligomer made entirely R-MP-γPNA (PNA5). In contrast the gain in thermal stability is about 2.3° C./unit for R-MP-γPNA-DNA duplexes.
(§2) Further insights related to the contribution of miniPEG to the stability of the PNA-DNA duplex was obtained from van′t Hoff analysis. Data in Table 2 show the thermodynamic parameters associated with hybridization of PNA1 through 5 to a complementary DNA or RNA strand.

A further series has as its system complementary DNA strand. Briefly: UV-melting / van't Hoff analysis of PNA-DNA hybrid duplexes. It counts as binding. Particulars: PNA-DNA duplex, 298 K; for Kd: UV melting; for −ΔG° / −ΔH° / −ΔTS°: averages of three trials. The method, then: as §1
UV-melting experiments were performed to determine the effect of MP on the thermal stability of PNA oligomers following hybridization to DNA or an RNA. FIG. 3A illustrates that the incorporation of a single miniPEG side-chain stabilized a PNA-DNA duplex by 4° C. […] However, increase in thermal stability tapers off to a value of about 2.3° C. per unit for the fully-modified oligomer, that is an oligomer made up of R-MP-γPNA groups only (e.g., PNA5).
as §2

In series [2] the test system is immobilized complementary DNA. Description: Surface plasmon resonance (SPR) hybridization kinetics. Particulars: for association rate constant ka / dissociation rate constant kd / Kd: SPR; for association rate constant ka / dissociation rate constant kd: 1:1 binding model; for dissociation rate constant kd: † values approach limits of detection. The format is binding. As to the method:
FIG. 4 illustrates surface plamon resonance (SPR) sensorgrams (solid black lines) and fits (dotted lines) for hybridization of PNA probes to immobilized complementary DNA. Solutions contained 30 nM PNA. Error bars at t=420 sec illustrate standard deviations for three separate trials.
Surface plasmon resonance (SPR) analysis is used to study the hybridization kinetics of ^R-MPγPNA-DNA and ^R-MPγPNA-RNA duplexes. Briefly, SPR was performed as follows. According to one embodiment, the PNA probe was immobilized to the chip while the DNA target was captured from solution. In another embodiment, a biotinylated version of the DNA target is immobilized on a streptavidin-conjugated, carboxymethylated dextran chip at a relatively low surface density (ca. 100 response units) of DNA targets to limit mass transport effects on the association kinetics. Solutions containing 10-50 nM PNA oligomers are allowed to flow over the chip for about 420 seconds, at which point the flow is switched to a PNA-free buffer to allow net dissociation of the hybridized PNA.
Background: SPR reads the build-up and loss of mass on a sensor chip optically.

For series [3], the system named is RNA: 3′-CGUACAXACU-5, X = A, C, G, U (SEQ ID NO: 12). Particulars: PNA-RNA, cited from earlier work.
Series [4] is described as follows: Water solubility, saturated concentration by UV-spectroscopy. It counts as physicochemical. Particulars: saturated solution in water. As to the method: To determine whether inclusion of miniPEG in the backbone of a Formula I PNA has an effect on water solubility of the resultant oligomer, saturating concentrations of PNA6 through 10 (Table 1) were prepared in water and the concentrations of each solution was measured by UV-spectroscopy. The incorporation of a single MP unit enhances the solubility of PNA6 by nearly 2-fold (Table 5). The solubility of the oligomers is further improved, albeit to a smaller extent, with additional MP units.

Series [5] concerns DNA fragment, 171 bp in length (no complementary sequence). Description: Non-denaturing gel-shift assay for non-specific (off-target) binding. As to the method: FIG. 6 illustrates the results of a non-denaturing gel-shift assay that was aimed at evaluating the extent of non-specific binding for an unmodified PNA oligomer (PNA6) and a oligomer containing the inventive R-MP-γPNA monomer (PNA10).
To assess the extent of off-target binding of PNA and ^R-MPγPNA, a gel-shift assay is performed. In this case, a DNA fragment, 171 bp in length, is incubated with different concentrations of PNA6 and PNA10 (Table 1) in 10 mM sodium phosphate buffer at 37° C. for 16 hr. The two oligomers contain identical nucleobase sequence but differ from another at the γ-backbone. PNA6 is unmodified, whereas PNA10 is modified at every other position with R-MP-γ side-chain. Following incubation, the samples are separated on non-denaturing polyacrylamide gel and stained with SYBR-Gold.

Setting [6] is: range over mismatches, earlier study.
The mark [7] stands for this setting: PNA-RNA duplex, 298 K, UV-melting curve fitting.
The mark [8] stands for this setting: ratio of dissociation and association rate constants, † values uncertain, read-out: equilibrium dissociation constant Kd.

On to “H-GCATGTTTGA-NH2 [PNA1] (all peptide nucleic acid (PNA); C-terminal amide)”, for which the Tm is 31 °C in series [1] (C<>T mismatch); 31 °C in series [1] (G<>T mismatch); 35 °C in series [1] (T(U)<>T mismatch); 45 °C in series [1] (X = A (A-T perfect match)); 37 °C in series [3] (C<>T mismatch); 44 °C in series [3] (G<>T mismatch). The Tm in series [3] (T(U)<>T mismatch) was 40 °C; in series [3] (X = A (A-T perfect match)) it was 55 °C. For the same substance, the “ΔTm between the perfect match and mismatch” value in series [1] (C<>T mismatch) was “(−14)^† ° C”; in series [1] (G<>T mismatch), “(−14) ° C”; in series [1] (T(U)<>T mismatch) it was “(−10) ° C”; in series [3] (C<>T mismatch), “(−18) ° C”; in series [3] (G<>T mismatch) it was “(−11) ° C”; in series [3] (T(U)<>T mismatch), “(−15) ° C”. The “ΔTm, single-base mismatch (X=C, G, T)” value in series [1] (setting [6]) is −10 to −14 °C; in series [3] (setting [6]), −11 to −18 °C. The Kd in the series on complementary RNA strand (setting [7]) turned out to be 0.035 nM; with complementary DNA strand, 2.5 nM; in series [2] (read-out: Kd), 2.8 nM. In addition, the “−ΔG°” value in the series on complementary RNA strand (setting [7]) was 14.3 kcal/mol; in the series with complementary DNA strand, 11.7 ± 0.24 kcal/mol. In addition, the “−ΔH°” value was 69.1 kcal/mol in the series on complementary RNA strand (setting [7]) and 65.2 ± 1.2 kcal/mol with complementary DNA strand. Further, the “−ΔTS°” value worked out at 54.7 kcal/mol in the series on complementary RNA strand (setting [7]) and 53.5 ± 1.2 kcal/mol with complementary DNA strand. Moreover, in the series with complementary RNA strand (duplex with RNA compared to duplex with DNA), the “differential Tm (ΔTm), RNA versus DNA binding” value came to 10 °C. In series [2], the “association rate constant ka” value worked out at 470000 M⁻¹ s⁻¹. In addition, the “dissociation rate constant kd” value in series [2] is 0.0013 s⁻¹.
As to “H-ACGGGTAGAATAACAT-NH2 [PNA8] (PNA; 3 R-MP-gamma units; C-terminal amide; modified_base (1)..(1) R-MP-gamma-backbone modified nucleotide; modified_base (8)..(8) R-MP-gamma-backbone modified nucleotide; modified_base (15)..(15) R-MP-gamma-backbone modified nucleotide)”, the Sat. conc. in series [4] turned out to be 108 mM.
Still for that read-out and setting: under “H-ACGGGTAGAATAACAT-NH2 [PNA7] (PNA; 1 R-MP-gamma unit; C-terminal amide; modified_base (8)..(8) R-MP-gamma-backbone modified nucleotide)” stands 76 mM.
For “H-ACGGGTAGAATAACAT-NH2 [PNA6] (all peptide nucleic acid (PNA); PNA oligomer with free N-terminus and C-terminal amide)”, the “intensity of the DNA band” value in series [5] (10 μM (PNA/DNA ratio of 25:1) or higher) was “completely disappeared”; in series [5] (increasing concentrations of oligomer, 37° C., 16 hr), “drastic reduction”. The Sat. conc. in series [4] is listed as 39 mM.
As for “H-ACGGGTAGAATAACAT-NH2 [PNA10] (PNA; 8 R-MP-gamma units; C-terminal amide; modified_base (2)..(2) R-MP-gamma-backbone modified nucleotide; modified_base (4)..(4) R-MP-gamma-backbone modified nucleotide; modified_base (6)..(6) R-MP-gamma-backbone modified nucleotide; modified_base (8)..(8) R-MP-gamma-backbone modified nucleotide; modified_base (10)..(10) R-MP-gamma-backbone modified nucleotide; modified_base (12)..(12) R-MP-gamma-backbone modified nucleotide; modified_bas)”, in series [5] (up to 20 μM (PNA/DNA ratio of 50:1)), the “intensity of the DNA bands” value was “remained fairly constant”. In addition, the Sat. conc. in series [4] is reported as >500 mM.
“H-ACGGGTAGAATAACAT-NH2 [PNA9] (PNA; 5 R-MP-gamma units; C-terminal amide; modified_base (3)..(3) R-MP-gamma-backbone modified nucleotide; modified_base (6)..(6) R-MP-gamma-backbone modified nucleotide; modified_base (9)..(9) R-MP-gamma-backbone modified nucleotide; modified_base (12)..(12) R-MP-gamma-backbone modified nucleotide; modified_base (15)..(15) R-MP-gamma-backbone modified nucleotide)” came in with a Sat. conc. in series [4] of 350 mM.
In the case of “H-GCATGTTTGA-NH2 [PNA3] (PNA; 3 R-MP-gamma units; C-terminal amide; modified_base (4)..(4) R-MP-gamma-backbone modified nucleotide; modified_base (6)..(6) R-MP-gamma-backbone modified nucleotide; modified_base (8)..(8) R-MP-gamma-backbone modified nucleotide)”, in the series on complementary RNA strand (setting [7]), the “−ΔG°” value turned out to be 17 kcal/mol, the “−ΔH°” value turned out to be 83.7 kcal/mol and the “−ΔTS°” value was found to be 66.9 kcal/mol. In the series on complementary DNA strand, the Kd was 0.051 nM, the “−ΔG°” value came to 14.1 ± 0.24 kcal/mol, the “−ΔH°” value came out at 75.5 ± 2.63 kcal/mol and the “−ΔTS°” value is 61.2 ± 2.63 kcal/mol. In addition, in series [2], the “association rate constant ka” value is 620000 M⁻¹ s⁻¹ and the “dissociation rate constant kd” value was 0.00019 s⁻¹. For the same substance, the Kd in series [2] (setting [8]) came to 0.3 nM.
On to “H-GCATGTTTGA-NH2 [PNA4] (PNA; 5 R-MP-gamma units; C-terminal amide; modified_base (2)..(2) R-MP-gamma-backbone modified nucleotide; modified_base (4)..(4) R-MP-gamma-backbone modified nucleotide; modified_base (6)..(6) R-MP-gamma-backbone modified nucleotide; modified_base (8)..(8) R-MP-gamma-backbone modified nucleotide; modified_base (10)..(10) R-MP-gamma-backbone modified nucleotide)”, for which, in the series on complementary RNA strand (setting [7]), the “−ΔG°” value was found to be 17.4 kcal/mol, the “−ΔH°” value was determined as 85.1 kcal/mol and the “−ΔTS°” value is 67.6 kcal/mol. Further, in the series on complementary DNA strand, binding was put at a Kd of 0.0035 nM, the “−ΔG°” value came to 15.5 ± 0.24 kcal/mol, the “−ΔH°” value was 78.6 ± 3.35 kcal/mol and the “−ΔTS°” value is 63.3 ± 2.87 kcal/mol. In series [2], the “association rate constant ka” value stood at 660000 M⁻¹ s⁻¹ and the “dissociation rate constant kd” value was 0.3 × 10^−4 ^† s^−1. The Kd in series [2] (setting [8]) came out at 0.041 nM. In addition, the “SPR-derived Kd relative to Kd determined by UV melting experiments” value in series [2] (Table 3 versus Table 2, DNA target) worked out at 12 fold.
For “H-GCATGTTTGA-NH2 (all [RMPγPNA-N], methylation of C not given here; C-terminal amide) [PNA5]”, the Kd in series [2] (setting [8]) is 0.054 nM.
